Assay results: article PMC10475017, “Design, synthesis, computational study and cytotoxic evaluation of some new quinazoline derivatives containing pyrimidine moiety” (Scientific Reports, 2023)

Columns and labels:
A549 cell line [1] = assay: Cell cycle analysis by PI flow cytometry; type: cell-based, human; conditions: 72 h; for cell cycle S population: untreated cells 4.46%
Protocol: For this purpose, A549 cells were treated with two concentrations of 6n (10 and 15 μM) for 72 h (Fig. 6). […] A slight decrease in the G2/M population was also observed.
The effect of 6n was also assessed according to our previous protocol. Briefly, 1 × 10^5 A549 cells were seeded in a 24-well plate in […] complete cell culture media and after 24 h, were treated with two concentrations of 6n (10 and 15 μM). After 72 h, the cells were harvested and washed twice with cold 1X pbs and stabilized with cold ethanol (70%) in drop-wised manner while vortexing. After keeping one day in the freezer, the fixed cells were washed with 1X pbs and treated with a mixture of ribonuclease (10 µg/ml) (Sigma-Aldrich, Germany) to remove RNA, and Propidium Iodide (PI, 20 µg/ml) (Sigma-Aldrich, Germany) to stain DNA. The cells were acquired on BD FACS Calibur™ flow cytometry (BD Biosciences, San Jose, CA, USA). The data were analyzed with FlowJo software packages version 10.

A549 cell line [2] = assay: Annexin V/PI apoptosis detection by flow cytometry; type: cell-based, human; conditions: 72 h
Protocol: Annexin V was applied to detect the phosphatidyl serin, which moved to outer membrane during apoptosis, and PI was used to distinguish live and dead cells.
After the incubation time, AnnexinV/PI staining using eBioscience™ Annexin V apoptosis detection kit (Invitrogen). The cells were gently harvested and washed once with 1X phosphate buffered saline (PBS), and once with 1000 μL 1X binding buffer. In the next step, the cells were suspended in 100 μL binding buffer containing 5 μL fluorescein isothiocyanate conjugated (FITC) Annexin V for 15 min and 5 μL Propodium Iodide (PI) solution. The cells were then acquired on BD FACS Calibur™ flow cytometry (BD Biosciences, San Jose, CA, USA) and apoptosis rates were calculated as the sum of early apoptosis and late apoptosis using Flowjo software.

melting point | Structure (SMILES) | other results
246 to 248 °C | Cn1c(=O)cc(Cl)n(Cc2nc3ccc(Br)cc3c(=O)n2-c2ccccc2)c1=O [Compound 6a, 1-((6-Bromo-4-Oxo-3-Phenyl-3,4-Dihydroquinazolin-2-Yl)Methyl)-6-Chloro-3-Methylpyrimidine-2,4(1H,3H)-Dione] | –
255 to 257 °C | Cn1c(=O)cc(Cl)n(Cc2nc3ccc(Br)cc3c(=O)n2-c2cccc(C#N)c2)c1=O [Compound 6b, 3-(6-Bromo-2-((6-Chloro-3-Methyl-2,4-Dioxo-3,4-Dihydropyrimidin-1(2H)-Yl)Methyl)-4-Oxoquinazolin-3(4H)-Yl) Benzonitrile] | –
243 to 244 °C | Cn1c(=O)cc(Cl)n(Cc2nc3ccc(Br)cc3c(=O)n2-c2cccc(F)c2)c1=O [Compound 6c, 1-((6-Bromo-3-(3-Fluorophenyl)-4-Oxo-3,4-Dihydroquinazolin-2-Yl)Methyl)-6-Chloro-3-Methylpyrimidine-2,4(1H,3H)-Dione] | –
259 to 260 °C | Cn1c(=O)cc(Cl)n(Cc2nc3ccc(Br)cc3c(=O)n2-c2cccc(Cl)c2)c1=O [Compound 6d, 1-((6-Bromo-3-(3-Chlorophenyl)-4-Oxo-3,4-Dihydroquinazolin-2-Yl)Methyl)-6-Chloro-3-Methylpyrimidine-2,4(1H,3H)-Dione] | –
251 to 252 °C | Cn1c(=O)cc(Cl)n(Cc2nc3ccc(Br)cc3c(=O)n2-c2cccc(Br)c2)c1=O [Compound 6e, 1-((6-Bromo-3-(3-Bromophenyl)-4-Oxo-3,4-Dihydroquinazolin-2-Yl)Methyl)-6-Chloro-3-Methylpyrimidine-2,4(1H,3H)-Dione] | –
240 to 242 °C | Cn1c(=O)cc(Cl)n(Cc2nc3ccc(Br)cc3c(=O)n2-c2ccc(F)cc2)c1=O [Compound 6f., 1-((6-Bromo-3-(4-Fluorophenyl)-4-Oxo-3,4-Dihydroquinazolin-2-Yl)Methyl)-6-Chloro-3-Methylpyrimidine-2,4(1H,3H)-Dione] | –
225 to 226 °C | Cn1c(=O)cc(Cl)n(Cc2nc3ccc(Br)cc3c(=O)n2-c2ccc(Cl)cc2)c1=O [Compound 6g, 1-((6-Bromo-3-(4-Chlorophenyl)-4-Oxo-3,4-Dihydroquinazolin-2-Yl)Methyl)-6-Chloro-3-Methylpyrimidine-2,4(1H,3H)-Dione] | –
– | Cn1c(=O)cc(Cl)n(Cc2nc3ccc(Br)cc3c(=O)n2-c2ccc(F)c(Cl)c2)c1=O [Compound 6n, 1-((6-Bromo-3-(3-Chloro-4-Fluorophenyl)-4-Oxo-3,4-Dihydroquinazolin-2-Yl)Methyl)-6-Chloro-3-Methylpyrimidine-2,4(1H,3H)-Dione] | cell cycle S population (A549 cell line [1]; 10 μM): 8.91%; cell cycle S population (A549 cell line [1]; 15 μM): 11.6%; effect on cell cycle (in words) (A549 cell line [1]; 10 and 15 μM): could induce arrest at S-phase; early apoptotic cells Q3 (Av pos/PI neg) (A549 cell line [2]; 5 µM): 2.61%; late apoptotic cells Q2 (Av pos/PI pos) (A549 cell line [2]; 5 µM): 21.2%; apoptotic death (sum of early and late apoptosis) (A549 cell line [2]; 15 µM): 65.08%; induction of apoptosis (in words) (A549 cell line [2]; 5, 10, 15 µM): significantly induced apoptotic death in the dose dependent manner
